Patent publication US20260184807A1, “Methods for Treating Rheumatoid Arthritis Using a Syndecan-1 Inhibitor or Syntenin-1 Inhibitor” (The United States Government as represented by the …, priority 2022, published 2026)

Assays:
[1] = system: RA monocyte-differentiated MΦs; test: CD14+CD86+GLUT1+ MΦ frequency by flow cytometry after Syntenin-1; format: cell-based, human; conditions: Syntenin-1 1000 ng/mL, 24 h; IL5Ra 2 μg/mL, PDZ1i 10 μM, mTORi 1 μM; FIGS. 3H, 3I
Method: (B, C) RA MΦs were treated with PBS (ctrl) or Syntenin-1 (1000 ng/mL) for 6 hours and transcription levels of HIF1α (n=10) (FIG. 3B). GLUT1, RAPTOR, HK2, PFK2, PDK1, PKM2 (FIG. 3C) were quantified by qRT-PCR (n=6). […] FIGS. 3H, 3I) after 24 hours impact of treatment was determined on CD14+CD86+ GLUT1+ frequency by flow cytometry (n=4-5). […] Data are presented as mean±SEM; significant differences were determined by Mann-Whitney test, Student's t-test, two-way-ANOVA, or one-way ANOVA. *p<0.05, **p<0.01, ***p<0.001, ****p<0.0001. ANOVA, analysis of variance.
Flow cytometry. Depending on the assay negatively selected human monocytes or human peripheral blood mononuclear cells from Rheumatoid Arthritis patients were stained with anti-CD14, anti-CD86, anti-CD206, anti-CD4 (BioLegend Inc.), or GLUT1 (Novus Biologicals) fluorescently labeled antibodies. Prior to intracellular staining, cells were stimulated with PMA (100 ng/ml) and ionomycin (1.5 μM; both Sigma-Aldrich) in the presence of Brefeldin A (eBioscience, San Diego, USA) for 3-4 h. To exclude dead cells, cells were stained by the ZombieViolet Fixable Viability Kit (BioLegend Inc.). […]
Syntenin-1 stimulation and inhibition. […] Cells were subsequently harvested in TRIzol reagent (Life Technologies) or RIPA buffer (Cell Signaling Technology) for mRNA quantification and western blot analysis; conditioned media was collected for ELISA.

RA ST explants = test: Rheumatoid arthritis explants stimulated with Syntenin-1 (qRT-PCR, ELISA); format: cell-based, human; conditions: Syntenin-1 5000 ng/ml 6-8 h, mTOR1i 1 μM
Method: FIGS. 19A-R show Syntenin1-induced metabolic activity fine-tunes transcription of angiogenic and inflammatory factors in RA ST explants. […] RA STs were stimulated with 1000 ng/ml Syntenin-1 for 6-8 h. Synovial tissues were harvested for transcriptome analysis by qRT-PCR and supernatants were used for protein quantification by ELISA. The transcription level of JAG1 (FIG. 19F), Notch1 (FIG. 19G), VEGF (FIG. 19H), VEGFR1 (FIG. 19I), and RAPTOR (FIG. 19J) was quantified by real-time RT-PCR, n=6-8. RA explants were untreated or stimulated with 5000 ng/ml Syntenin-1 in the presence or absence of SDC1-Ab (1:100), HIF1αi (2 μM), or mTOR1i (IμM) for 6-8 h. The transcription levels of RAPTOR (FIG. 19K, n=3), VEGF (FIG. 19L, n=5), IL-1β (FIG. 19M, n=8), CCL5 (FIG. 19N, n=6), IL-6 (FIG. 19O, n=6), IL-8 (FIG. 19P, n=6), CCL2 (FIG. 19Q, n=8) were evaluated by qRT-PCR or ELISA. […] Data are presented as mean±SEM: significant differences were determined by the Mann-Whitney test, 2way ANOVA, or one-way ANOVA. *p<0.05, **p<0.01, ***p<0.001, ****p<0.0001.
RheumatoidArthritis Explants. RA ST (30 mg) was cut into small pieces to allow proper access to stimuli and were starved o/n in 0% FBS RPMI with or without SDC1-Ab (1:100), mTOR1i (1 μM), and HIF1αi ([…]). […] Tissues were harvested for transcriptome analysis and supernatants were used for protein quantification by ELISA.

## CO[C@H]1C[C@@H]2CC[C@@H](C)[C@@](O)(O2)C(=O)C(=O)N2CCCC[C@H]2C(=O)O[C@H]([C@H](C)C[C@@H]2CC[C@@H](OCCO)[C@H](OC)C2)CC(=O)[C@H](C)/C=C(\C)[C@@H](O)[C@@H](OC)C(=O)[C@H](C)C[C@H](C)/C=C/C=C/C=C/1C [mTORi, Everolimus]
[1]
  Syntenin-1 reconfiguration of naïve cells into RA CD14+CD86+GLUT1+MΦs: exclusively impaired
RA ST explants; FIGS. 19Q-R
  CCL2 transcription and TNF secretion: intercepted
RA ST explants; HIF1αi 2 μM, FIG. 19K
  Syntenin-1-enriched RAPTOR expression: suppressed
